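Growth conditions: 96-well plates. Treatment: test compound, 48 hours, 5 concentrations. Analysis: linear interpolation between bracketing concentrations; unreached endpoints set to highest concentration. At the GI50, growth is halved. TGI: total growth inhibition.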
What was measured:
Assay in all cases: NCI anticancer screen, dose series, 48 h
[1] = test system: UACC-62 melanoma
[2] = test system: HCT-116 colon
[3] = test system: SNB-75 CNS
[4] = test system: HOP-62 NSCLC
[5] = test system: NCI/ADR-RES ovarian
[6] = test system: MOLT-4 leukemia
[7] = test system: CCRF-CEM leukemia
[8] = test system: HOP-92 NSCLC
[9] = test system: T-47D breast
[10] = test system: MCF7 breast
[11] = test system: U251 CNS
[12] = test system: HT29 colon

Row | Compound | TGI [1] [µM] | TGI [2] [µM] | TGI [3] [µM] | TGI [4] [µM] | TGI [5] [µM] | TGI [6] [µM] | TGI [7] [µM] | TGI [8] [µM] | TGI [9] [µM] | TGI [10] [µM] | TGI [11] [µM] | TGI [12] [µM] | GI50 [8] [µM] | GI50 [9] [µM] | GI50 [2] [µM] | GI50 [11] [µM]
1 | C=CCOC(=O)C1=C(C)NC2=N[C@H](CCCCCCCCC)C[C@@H]3CCC1N23 (stereo partly specified) | 35.6 | 36 | 83.5 | 79 | 56 | > 100 | > 100 | 38 | 60.2 | 36.5 | 40.5 | 72.2 |  |  |  | 
2 | Fc1ccc2c3c([nH]c2c1)CCN(Cc1ccccc1)C3 | 35.2 | 32.9 | 32.9 | 28.5 | 71 | 42.5 | > 100 | 18.7 | 47.3 | 31.3 | 37.1 | 47.9 |  |  |  | 
3 | O=C(CSCC(=O)N/N=C\c1cccc([N+](=O)[O-])c1)N/N=C\c1cccc([N+](=O)[O-])c1 | > 100 | > 100 | 65.6 | 16.3 | 60 | > 100 | > 100 | > 100 | > 100 | > 100 | 32.4 | > 100 |  |  |  | 
4 | CC(=O)NCC1OC2COC(c3ccccc3)OC2C(NC(=O)c2ccccc2)C1OC(=O)c1ccccc1 (stereo unspecified) | > 100 | > 100 | > 100 | > 100 | > 100 | > 100 | > 100 | > 100 | > 100 | > 100 | > 100 | > 100 |  |  |  | 
5 | COc1c(C(=O)NCCN(CCNC(=O)c2cccc(-c3cccc(C(=O)N(C)C)c3OC)c2OC)CCNC(=O)c2cccc(-c3cccc(C(=O)N(C)C)c3OC)c2OC)cccc1-c1cccc(C(=O)N(C)C)c1OC | 67.2 | 41.4 | 83.8 | > 100 | > 100 | 72.4 | 72.7 | 46.2 | > 100 | 78 | > 100 | > 100 |  |  |  | 
6 | Cc1ccc2nc(C(C)C)c(=O)[nH]c2c1 | > 100 | > 100 | > 100 | 30.9 | > 100 | > 100 | > 100 | > 100 | > 100 | > 100 | > 100 | > 100 |  |  |  | 
7 | COc1cc2c(c(OC)c1OC)-c1ccc(SC)c(=O)cc1[C@@H](O)CC2 | > 100 | > 100 | > 100 | > 100 | 0.302 | > 100 | > 100 | > 100 | > 100 | > 100 |  | 0.0703 | > 100 | > 100 |  | 
8 | Cc1ccc2c(=O)cc(-c3ccc4ccccc4c3)[nH]c2n1 | 24.1 | 87.9 | 14.6 | > 100 | 48.5 | 29.1 | 14.6 | 7.7 | > 100 | 37.9 | > 100 | > 100 |  |  | 4 | 4.57
9 | O=[S@]1c2ccc3ccccc3c2N[C@@H]2[C@H]1[C@H]1C=C[C@@H]2C1 | > 100 | > 100 | 73.4 | > 100 | 99.7 | > 100 | 68.4 | > 100 | > 100 | > 100 | > 100 | > 100 |  |  |  | 
10 | CCOP(=O)(OCC)C(C(=O)OC)C(=O)C(=O)Nc1cccc(O)c1 (stereo unspecified) | > 100 | > 100 | > 100 | > 100 | > 100 | > 100 | > 100 | > 100 | > 100 | > 100 | > 100 | > 100 |  |  |  | 
11 | COc1ccc2c(c1)CCCN1CCc3ccccc3C21 (stereo unspecified) | 83.1 | 72.1 | 66.1 | > 100 | 49.5 | > 100 | > 100 | > 100 | > 100 | > 100 | 95.4 | > 100 |  |  |  | 
12 | CC1=CC[C@@]2(C)CC[C@](O)(C(C)C)C2C(OC(=O)c2ccccc2)C1 (stereo partly specified) |  | 31.8 | 35.8 | 33.7 | 41.5 | 43.5 | 54.7 | 29.7 | 42.6 | 34.4 | 60 | 32.7 |  |  |  | 
13 | CC(C)=CCC[C@@H](C)C1=C(O)C(Nc2ccccc2Cl)=C(C)C(=O)C1=O | 36 | > 50.9 | > 52.3 | > 64.2 | 11.9 | > 57.5 | > 21.3 | > 67.8 | 62.7 | > 75 | > 75 | 26.3 |  |  |  | 
14 | O=C(/C=C/c1ccccc1)Nc1ccccc1SCCCCl | > 72.7 | 39.1 | > 87.1 | > 100 | 35.1 | > 100 | > 100 | > 30.9 | > 85.8 | > 100 | > 82.8 | > 41.4 |  |  |  | 
15 | CC(Nc1ccc(Cl)c(Cl)c1)c1ccncc1 (stereo unspecified) |  | 36.5 | 97.7 | 49.7 | > 100 | > 100 | > 100 | 54.8 | > 100 | > 100 | 46.2 | 72.4 |  |  |  | 
16 | O=C1/C(=C/c2ccccc2[N+](=O)[O-])N=C(c2ccccc2)N1c1nc2ccccc2s1 |  | 38.5 | 64.6 | 72.2 | 39.5 | 34.7 | 0.681 | 52.1 | 76.6 | 90.4 | > 100 | > 100 |  |  |  | 
17 | O=[N+]([O-])c1ccc(-n2nc3ccc4c(no[n+]4[O-])c3n2)cc1 | > 100 | > 100 | > 100 | > 100 | > 100 | > 100 | > 100 | > 100 | > 100 | > 100 | > 100 | > 100 |  |  |  | 
18 | O=C1O[C@H]2[C@H](OC(=O)c3cc(O)c(O)c(O)c3)[C@@H](OC(=O)c3cc(O)c(O)c4c3[C@@H]3C1=CC(=O)C(O)(O)C3(O)O4)[C@H](OC(=O)c1cc(O)c(O)c(O)c1)O[C@@H]2COC(=O)c1cc(O)c(O)c(O)c1 (stereo partly specified) | > 100 | > 100 | > 100 | > 100 | > 100 | > 100 | > 100 | > 100 | > 100 | > 100 | > 100 | > 100 |  |  |  | 

Source: PubChem BioAssay (NCI)
